Experimental findings from patent US20110081428A1, “Use of thioflavin-like compounds to increase life span and/or health span” (priority 2009, published 2011) are described below.

What all share (assay type): in vivo, Caenorhabditis elegans
In one experiment the test system is HSP-70. Briefly: Western blot HSP-70. Particulars: 50 μM ThT, 4 and 7 days of treatment. The method, then:
(§1) Peptide corresponding to amino acids 110-145 ([…]; SEQ ID NO:1) of HSP-16.2 was used to commercially synthesize antiserum (Invitrogen). Briefly, KLH-peptide was emulsified by mixing with an equal volume of Freund's adjuvant and injected into three subcutaneous dorsal sites for a total of 0.1 mg of peptide for immunization. The animals (rabbits) were bled, the blood allowed to clot and the serum collected by centrifugation. Monoclonal HSP-70 and Polyclonal HSF-1 primary antibodies were from stressgen (N27F3-4 and SPA-901, respectively).
(§2) Worms were transferred to siliconized eppendorf tubes, washed once in S-basal and frozen in liquid N2. Standard SDS-PAGE was performed using (4-12%) NOVEX gels and IVIES running buffer. Following transfer PVDF (BioRad) membranes were incubated with antisera (1:10000) or primary antibodies (1:1000) diluted in blocking buffer and then with secondary, goat anti-rabbit IgG antibody/horseradish peroxidase conjugate (Pierce), diluted 1:25000. Detection was undertaken with chemiluminescent reagents (SuperSignal, Pierce) and standard autoradiography.
For orientation: In western blotting, separated proteins are transferred to a membrane and probed.

The next experiment concerns hsp-6 RNA. In words: Real time quantitative PCR, hsp-6. Particulars: 50 μM ThT, 3 and 6 days of treatment. As to the method: Twelve single adults from control or 50 μM ThT populations were picked after 3, 6 and 12 days of treatment into 5 μl of distilled water and flash frozen until extraction. Individual worms were extracted using the RNeasy Micro Kit, TissueLyser and QIAcube (Qiagen). Using the manufacturer's standard Animal Tissue protocol, each sample was homogenized in buffer RLT/Bme (Qiagen) on the TissueLyser (6 min total at 20 Hz). Samples, reagents and columns were then loaded into the QIAcube robot, and processed using the “RNeasy Micro—Animal tissues and cells—DNase digest” program. Each sample was then eluted in 14 μl of Nuclease-free water. cDNA templates for the Real Time PCR reactions were made using a combination of Message Sensor RT kit (Ambion's) and TaqMan PreAmp Master Mix (Applied Biosystems). The entire worm sample was added to the RT reaction and reversed transcribed at 50° C. for 20 min, using Message Sensor's “Two Step RT-PCR Protocol” (sample RT's were randomized). Then 2.5 μl of the cDNA sample was pre-amplified with a “4×Multiplex Primer Mix” for 14 cycles using TaqMan PreAmp master mix and protocol (ABI). Two modifications were made to ABI's protocol: 1. the reaction volume was reduced to 10 μl and 2. after pre-amplification, each cDNA sample was diluted 1:5 with 1XTE Buffer (Promega). cDNA samples were stored at −20° C. until needed. […]

The subject of the next experiment is TJ1052 [age-1(hx546)II]. Briefly: Lifespan assay, age-1 mutant. Particulars: 50 μM ThT, 25° C. The method, then:
(§3) Lifespan assays were performed as described previously. (McColl, G. et al. Pharmacogenetic analysis of lithium-induced delayed aging in Caenorhabditis elegans. J Biol Chem 283, 350-357 (2008). Briefly, the nematode growth media (NGM) plates were prepared under sterile conditions. 100 μL of concentrated stocks of each of the compounds used in this study were added onto a previously prepared NGM small plate (3 mL volume) immediately spread over the surface of the plate. The final concentrations quoted in the text assume an even distribution of compound throughout the 3 ml plate. The plates were then placed in a laminar flow hood at room temperature for 30 min and then 60 μL of a concentrated suspension of E. coli OP50 was spotted to form a circular lawn on the center of each plate. Thirty late L4 larvae growing at 20° C. were transferred to fresh NGM plates with FUdR (75 μM) in presence or absence of the specified compounds and incubated at 20° C. The first day of adulthood is Day 3 in survival curves. There was between-experiment variation in the magnitude of the lifespan extension observed with ThT which appeared to correlate with different suppliers and batches. ThT concentration should be optimized depending on batch and purity and stability of the compound. […]
(§4) Animals were scored as alive, dead or lost every other day. […]

A further experiment relates to CF1038 [daf-16(mu86)I]. In words: Lifespan assay, daf-16 mutant. Particulars: 50 μM ThT, 100 μM curcumin. The method, then: as §3, §4
The next experiment relates to HSF-1. In words: Western blot HSF-1. Particulars: ThT treatment. As to the method: as §1, §2

`Cc1ccc2c(c1)sc(-c1ccc(N(C)C)cc1)[n+]2C.[Cl-]` [ThT, 4-(3,6-dimethyl-1,3-benzothiazol-3-ium-2-yl)-N,N-dimethylaniline chloride]: the HSP-70 protein levels entry in the experiment on HSP-70 is recorded as “up-regulated”. Besides, the “hsp-6 RNA levels” value in the experiment on hsp-6 RNA is reported as “up-regulated”. Moreover, the “lifespan of age-1(hx546) mutant” value with TJ1052 [age-1(hx546)II] was “extended the lifespan”. The “lifespan of daf-16(mu86) mutant” value in the experiment on CF1038 [daf-16(mu86)I] is listed as “extended the lifespan”. Besides, in the experiment with HSF-1, the HSF-1 protein levels entry is listed as “slight increase”.
